In paper PMC5110245, “Identification and reconstitution of the rubber biosynthetic machinery on rubber particles from Hevea brasiliensis” (eLife, 2016):

Columns and labels:
Type in all cases: biochemical
HRT1–HRBP–REF = biological target: T1, HRT1–HRBP–REF (Hevea brasiliensis, UniProt Q8L5B7); assay: […]-IPP incorporation into rubber, allylic substrate dependency; details: allylic primer 15 µM; 100 µM [4-14C]IPP, 5 mM MgCl2, pH 7.5, 30 °C, 8 h; on WRPs
T1 construct: gene Hpt4; full-length CDSs, wheat germ cell-free co-translation onto CHAPS-washed Hevea rubber particles (WRPs); HRBP His6-tagged; stoichiometry not known; endogenous background present; Rubber elongation factor protein
T1 sequence (P15252 2-138, one chain of several): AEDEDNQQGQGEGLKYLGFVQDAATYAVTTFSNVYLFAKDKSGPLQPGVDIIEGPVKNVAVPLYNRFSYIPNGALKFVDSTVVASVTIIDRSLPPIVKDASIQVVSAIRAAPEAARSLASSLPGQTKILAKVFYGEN
T1 sequence (A0A1E1GJI0 entry or part of it, one chain of several, further chain): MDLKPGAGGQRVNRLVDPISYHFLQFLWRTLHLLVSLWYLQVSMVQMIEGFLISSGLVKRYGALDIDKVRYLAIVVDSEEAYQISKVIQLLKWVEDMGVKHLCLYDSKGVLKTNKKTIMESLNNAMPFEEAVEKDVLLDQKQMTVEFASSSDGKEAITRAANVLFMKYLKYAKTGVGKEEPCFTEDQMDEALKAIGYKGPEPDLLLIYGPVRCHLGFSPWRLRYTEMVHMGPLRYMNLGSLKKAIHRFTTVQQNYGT

LsCPT3-LsCPTL2 = biological target: T2, LsCPT3-LsCPTL2 (Lactuca sativa, UniProt A0A0A0QMT0); assay: […]-IPP incorporation into rubber, net of vector-control WRPs; details: 15 µM FPP, 5 mM MgCl2, pH 7.5, 30 °C; on Hevea WRPs; labelled compound
T2 construct: full-length synthetic CDSs (LsCPT3 in pEU-E01-His-TEV-MCS-N2, LsCPTL2 in pEU-E01-His-TEV-MCS-C1); wheat germ cell-free co-translation onto CHAPS-washed Hevea rubber particles (WRPs); with cis-prenyltransferase-like 2
T2 sequence (A0A0A0QMT0 1-296): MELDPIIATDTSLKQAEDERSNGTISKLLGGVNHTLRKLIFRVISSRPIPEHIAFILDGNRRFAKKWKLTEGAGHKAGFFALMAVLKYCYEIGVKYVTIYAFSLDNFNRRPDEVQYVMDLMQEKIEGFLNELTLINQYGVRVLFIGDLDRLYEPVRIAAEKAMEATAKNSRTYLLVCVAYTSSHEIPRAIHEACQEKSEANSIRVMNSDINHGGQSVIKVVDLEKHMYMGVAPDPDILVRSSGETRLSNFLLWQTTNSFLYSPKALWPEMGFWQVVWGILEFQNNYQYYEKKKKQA
T2 sequence (A0A0A0QP73 1-244 partner): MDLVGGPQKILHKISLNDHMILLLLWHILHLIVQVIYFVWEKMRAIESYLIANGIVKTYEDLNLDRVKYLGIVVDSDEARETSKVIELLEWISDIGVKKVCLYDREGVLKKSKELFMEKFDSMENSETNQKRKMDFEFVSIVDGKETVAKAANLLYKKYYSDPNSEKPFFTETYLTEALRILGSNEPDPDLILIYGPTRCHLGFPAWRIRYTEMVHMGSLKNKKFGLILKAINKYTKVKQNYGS

HRT1 = biological target: T3, HRT1 (Hevea brasiliensis, UniProt Q8L5B7); assay: as above; details: 15 µM FPP, 5 mM MgCl2, pH 7.5, 30 °C; on WRPs; labelled compound
T3 construct: gene Hpt4; full-length CDS in pEU-E01-His-TEV-MCS-N2; wheat germ cell-free translation onto CHAPS-washed Hevea rubber particles (WRPs), which keep small amounts of endogenous proteins
T3 sequence (Q8L5B7 1-290): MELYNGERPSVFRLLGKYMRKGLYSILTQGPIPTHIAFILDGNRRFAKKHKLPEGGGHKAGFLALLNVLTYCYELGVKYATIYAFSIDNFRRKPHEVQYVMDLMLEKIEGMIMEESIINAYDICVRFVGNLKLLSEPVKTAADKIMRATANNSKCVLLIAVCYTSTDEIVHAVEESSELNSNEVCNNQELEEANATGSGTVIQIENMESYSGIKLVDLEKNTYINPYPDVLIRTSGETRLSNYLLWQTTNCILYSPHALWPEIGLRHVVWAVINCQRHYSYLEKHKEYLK

Compound	14C-IPP incorporation into rubber, allylic substrate dependency (HRT1–HRBP–REF)	14C-IPP incorporation into rubber, net of vector-control WRPs (LsCPT3-LsCPTL2)	14C-IPP incorporation into rubber, net of vector-control WRPs (HRT1)
CC(C)=CCC/C(C)=C/CC/C(C)=C/COP(=O)(O)OP(=O)(O)O [FPP, E,E-farnesyl diphosphate]	the RTase was most active with FPP (C15)		
C=C(C)CCOP(=O)(O)OP(=O)(O)O [IPP, isopentenyl diphosphate]		Co-expression of LsCPTL2 with LsCPT3 resulted in an increase of the activity of LsCPT3	introduction of HRT1 onto WRPs distinctly increased the RTase activity (Figure 9A)
